# Reference: the supplement of paper PMC10331698
# ± gives the standard deviation of the averaged measurements.
# What was measured:
# Assay in all cases: level (log10 ratio to DMSO vehicle control); higher = higher biomarker level / cell amount than vehicle control
# [1] = compound: FC(F)(I)C(F)(F)C(F)(F)C(F)(F)C(F)(F)C(F)(F)I [1,6-Diiodoperfluorohexane]; conditions: 6700 nM; in DMSO
# Method: (§1)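 BioMAP Diversity Plus panel of 12 human primary cell co-culture systems (3C, 4H, LPS, SAg, BT, BF4T, BE3C, CASM3C, HDF3CGF, KF3CT, MyoF, Mphg). Compounds were added 1 h before stimulation and left for 24 h (MyoF 48 h; BT 72 h for soluble read-outs or 6 d for IgG). Biomarkers were read by ELISA, cytotoxicity by SRB, PBMC viability and proliferation by Alamar Blue. Each well value was divided by the mean of 8 DMSO control wells on the same plate and log10 transformed; duplicate blinded samples were tested at 4 concentrations.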
# [2] = compound: FC(F)(F)COC(OCC(F)(F)F)OCC(F)(F)F [tris(Trifluoroethoxy)methane]; conditions: in DMSO
# Method: as §1
# [3] = compound: O=C(CC(=O)C(F)(F)C(F)(F)C(F)(F)F)c1cccs1 [(Perfluorobutyryl)-2-thenoylmethane]; conditions: in DMSO
# Method: as §1
# [4] = compound: O=C(Cl)C(F)(F)C(F)(F)C(F)(F)C(=O)Cl [Hexafluoroglutaryl chloride]; conditions: in DMSO
# Method: as §1
# [5] = compound: FC(F)(F)C(F)(F)C(F)(F)C(F)(F)CCI [1H,1H,2H,2H-Perfluorohexyl iodide]; conditions: in DMSO
# Method: as §1
# [6] = compound: OCC(F)(F)C(F)(F)C(F)(F)C(F)(F)C(F)(F)C(F)(F)F [6:1 Fluorotelomer alcohol]; conditions: in DMSO
# Method: as §1
# [7] = compound: C=CC(=O)OCCC(F)(F)C(F)(F)C(F)(F)C(F)(F)C(F)(F)C(F)(F)C(F)(F)C(F)(F)F [8:2 Fluorotelomer acrylate]; conditions: in DMSO
# Method: as §1
Test System,level (log10) [1],level (log10) ([2]; 6700 nM),level (log10) ([2]; 20000 nM),level (log10) ([2]; 60000 nM),level (log10) ([3]; 6700 nM),level (log10) ([3]; 20000 nM),level (log10) ([4]; 6700 nM),level (log10) ([4]; 20000 nM),level (log10) ([4]; 60000 nM),level (log10) ([5]; 6700 nM),level (log10) ([5]; 20000 nM),level (log10) ([5]; 60000 nM),level (log10) ([6]; 6700 nM),level (log10) ([6]; 20000 nM),level (log10) ([6]; 60000 nM),level (log10) ([7]; 6700 nM),level (log10) ([7]; 20000 nM),level (log10) ([7]; 60000 nM)
SAg:CD38,-0.008,-0.0135 ± 0.015,-0.011 ± 0.0057,-0.012 ± 0.02,-0.08 ± 0.055,-0.223 ± 0.035,-0.021 ± 0.025,-0.031 ± 0.034,-0.031 ± 0.055,0.009 ± 0.021,-0.007 ± 0.0071,-0.005 ± 0.031,-0.0215 ± 0.088,-0.0085 ± 0.12,-0.018 ± 0.17,-0.001 ± 0.0085,-0.003 ± 0.0071,-0.004 ± 0.013
BF4T:Keratin 8/18,0.024,0.0035 ± 0.032,0.0035 ± 0.021,0.01 ± 0.024,-0.0735 ± 0.0035,-0.127 ± 0.016,-0.0245 ± 0.053,-0.018 ± 0.03,-0.0345 ± 0.035,0.0015 ± 0.022,-0.0045 ± 0.005,0.003 ± 0.033,-0.0085 ± 0.0092,-0.0045 ± 0.023,0.03 ± 0.05,-0.014 ± 0.0042,-0.0045 ± 0.00071,0.0115 ± 0.015
4H:CD87/uPAR,-0.009,0.0405 ± 0.07,0.0305 ± 0.052,0.0185 ± 0.064,-0.006 ± 0.024,0.033 ± 0.0071,0.0165 ± 0.0035,0.0115 ± 0.03,0.004 ± 0.018,-0.0115 ± 0.0021,-0.0245 ± 0.022,-0.0255 ± 0.0064,-0.0195 ± 0.018,0.029 ± 0.011,-0.175 ± 0.36,-0.045 ± 0.051,-0.03 ± 0.011,-0.064 ± 0.069
SAg:CD40,-0.018,0.0005 ± 0.026,-0.0185 ± 0.011,-0.0245 ± 0.0064,-0.27 ± 0.11,-0.412 ± 0.093,0.0105 ± 0.042,0.0085 ± 0.0021,-0.0085 ± 0.043,0.019 ± 0.013,0.012 ± 0.0014,-0.0185 ± 0.018,-0.02 ± 0.023,-0.0075 ± 0.0021,-0.005 ± 0.033,-0.0085 ± 0.00071,-0.0075 ± 0.0021,-0.01 ± 0.017
